According to PubChem BioAssay (NCI):
Several values for one entry are separate records, joined by “and”; a condition that tells them apart may be missing. Equal values may be shown once.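 These data come from cells grown in 96-well plates and exposed to compound for 48 hours at five concentrations. GI50 = concentration required for 50% inhibition of growth. TGI denotes the concentration required for complete inhibition of growth.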

Experiments:
Assay in all cases: NCI anticancer screen, dose series, 48 h
SK-MEL-2 melanoma = tested on: SK-MEL-2 melanoma
CAKI-1 renal = tested on: CAKI-1 renal
SK-OV-3 ovarian = tested on: SK-OV-3 ovarian
IGROV1 ovarian = tested on: IGROV1 ovarian
UACC-257 melanoma = tested on: UACC-257 melanoma
SW-620 colon = tested on: SW-620 colon
SF-539 CNS = tested on: SF-539 CNS
MDA-MB-231 breast = tested on: MDA-MB-231 breast
SK-MEL-28 melanoma = tested on: SK-MEL-28 melanoma
K-562 leukemia = tested on: K-562 leukemia

SMILES	GI50 (SK-MEL-2 melanoma)	TGI (SK-MEL-2 melanoma) [µM]	GI50 (CAKI-1 renal)	TGI (CAKI-1 renal) [µM]	GI50 (SK-OV-3 ovarian)	TGI (SK-OV-3 ovarian) [µM]	GI50 (IGROV1 ovarian)	TGI (IGROV1 ovarian) [µM]	GI50 (UACC-257 melanoma) [µM]	TGI (UACC-257 melanoma) [µM]	GI50 (SW-620 colon)	TGI (SW-620 colon) [µM]	GI50 (SF-539 CNS)	TGI (SF-539 CNS) [µM]	GI50 (MDA-MB-231 breast)	TGI (MDA-MB-231 breast)	GI50 (SK-MEL-28 melanoma)	TGI (SK-MEL-28 melanoma) [µM]	GI50 (K-562 leukemia)	TGI (K-562 leukemia) [µM]
O=S(=O)(c1cccc2c(I)cccc12)N1CCCNCC1	16.7 µM	33.6	19.2 µM	37.8	20.2 µM	37.6	15.8 µM	31.4	23.1	43.2	17.1 µM	51.4	15.7 µM	32.8	19.5 µM	36.7 µM	21.6 µM	44.2	10.9 µM	30.4
C[C@]12CC[C@@H]3c4ccc(O)cc4CC[C@H]3[C@@H]1Cc1cnc(N)nc12	26.9 µM	> 100	23.8 µM	49.8	12.8 µM	33.5	35.1 µM	> 100	28.9	74.1	22.4 µM	45.9	14.8 µM	30.5	13.7 µM	32.8 µM	10.7 µM	26.1	7.97 µM	42.6
CC(C)(C)c1[nH]nc2c1C(c1cc3ccccc3[nH]c1=O)Nc1cc(C(=O)OCc3ccccc3)ccc1N2 (stereo not given)	3.33 µM	7.28	8.75 µM	> 100	3.27 µM	8.73	4.32 µM	> 100	2.71	> 100	3.53 µM	> 100	4.56 µM	> 100	5.91 µM	> 100 µM	2.44 µM	6.43	4.18 µM	> 100
CCC[CH2][Sn]1([CH2]CCC)[O]C2C(CO)OC(n3ccc(N)nc3=O)C2[O]1 (stereo not given)	0.964 µM	2.29	1.19 µM	2.53	1.82 µM	3.38	1.02 µM	2.78	1.28	2.61	–	–	1.41 µM	2.72	0.818 µM	2.19 µM	1.29 µM	2.66	0.297 µM	> 100
Cc1cn2c(/C=C3/C(=O)Nc4ccc(O)cc43)c(C)nc2s1	> 53 µM	> 100	3.28 µM	19.8	3.8 µM	> 28.8	7.23 µM	> 100	7.85	> 47.1	2.88 µM	> 100	2.42 µM	9.16	2.82 µM	> 62.4 µM	8.44 µM	> 100	0.362 µM	> 61.8
CN(C)CC1CCC2=C(C1=O)C(c1ccc(Cl)c(Cl)c1)C1=C(CCC(CN(C)C)C1=O)O2 (stereo not given)	16.6 µM	30.7	1.58 µM	3.03	13.3 µM	26	4.54 µM	8.97	5.14	10.8	2.47 µM	16.9	6.01 µM	18.2	15.4 µM	28.7 µM	17.6 µM	34.6	2.46 µM	6.34
O=C1NOC(c2ccc(O)cc2)(c2ccc(O)cc2)c2ccccc21	> 100 µM	> 100	> 100 µM	> 100	> 100 µM	> 100	> 100 µM	> 100	> 100	> 100	> 100 µM	> 100	–	–	> 100 µM	> 100 µM	> 100 µM	> 100	> 100 µM	> 100
NC(=O)c1ccc(-c2nc(-c3ccc4c(c3)OCO4)c(-c3ccccn3)[nH]2)cc1	> 25 µM and 35.8 µM	> 100	> 25 µM and 22.7 µM	> 100	> 25 µM and 39.5 µM	> 100	> 25 µM and 34.2 µM	> 100	> 64.3	> 100	> 25 µM and 65.6 µM	> 100	> 25 µM and 49 µM	> 100	21.3 µM and 14.8 µM	> 25 µM and 59.1 µM	> 25 µM and 51.1 µM	> 100	> 25 µM and 37.2 µM	> 100
COc1cc(OC)c(C(=O)/C=C/c2cccc(C#N)c2)c(OC)c1	1.49 µM	6.44	2.03 µM	7.16	1.82 µM	> 50	1.55 µM	5.91	2.1	8.69	1.46 µM	5.15	1.41 µM	4.12	2 µM	8.08 µM	1.58 µM	6.24	0.384 µM	> 50
COc1ccc(C2=CC(c3ccc(OC)cc3Br)N3C=CSC3=N2)cc1 (stereo not given)	15.2 µM	31.3	13.4 µM	51.4	6.78 µM	27	7.31 µM	30.7	10.8	31.3	2 µM	4.79	4.61 µM	17.1	8.32 µM	36.2 µM	8.83 µM	22.3	2.47 µM	8.26
CN1CCc2[nH]nc(-c3n[nH]c4c3CN(C)CC4)c2C1	–	> 100	–	> 100	–	> 100	–	> 100	–	> 100	–	> 100	–	> 100	–	> 100 µM	–	> 100	–	> 100
CCOC(=O)c1cc2c(n1Cc1cc(OC)c(OC)c(OC)c1)-c1oncc1CCC2	0.0841 µM	0.545	0.105 µM	> 27.8	0.185 µM	3.55	0.147 µM	5.36	0.177	28.5	0.186 µM	> 100	–	–	0.372 µM	2.46 µM	0.255 µM	> 54.5	0.0973 µM	> 100
Cc1[nH]c2ccc(F)cc2c1-c1nc2c3cccnc3c3ncccc3c2[nH]1	0.51 µM	> 100	0.358 µM	> 100	0.35 µM	> 100	0.374 µM	> 100	–	–	0.374 µM	> 100	–	–	0.277 µM	> 100 µM	0.36 µM	> 100	0.353 µM	> 100
